Results: US7056931B2, “2-substituted 1,2,3,4-tetrahydroquinolines and derivatives thereof, compositions and methods” (Eli Lilly and Company, priority 2001, dated 2006)
pEC50, pIC50, pKi: −log10 of the molar value.

Experiments:
[1] = test system: Ishikawa human endometrial tumor cells; test: Ishikawa Alkaline Phosphatase Assay; format: cell-based; conditions: for pEC50 / pIC50: Homo sapiens, Ishikawa; for pEC50 / Agonist % Eff: agonist mode; for pIC50 / % Eff: antagonist mode; for pIC50: with E2 (1 nM); for Agonist % Eff: % efficacy versus the response to Tamoxifen; for % Eff: % efficacy versus E2 (1 nM) alone
Description: Ishikawa Alkaline Phosphatase Assay
Ishikawa human endometrial tumor cells are maintained in MEM (minimum essential medium, with Earle's salts and L-Glutamine, Gibco BRL, Gaithersburg, Md.), supplemented with 10% fetal bovine serum (FBS) (V/V), (Gibco BRL). One day prior to assay, growth media is changed to assay medium, DMEM/F-12 (3:1) (Dulbecco's Modified Eagle Medium: Nutrient Mixture F-12, 3:1 Mixture, phenol red-free, Gibco BRL) supplemented with 5% dextran coated charcoal stripped fetal bovine serum (DCC-FBS) (Hyclone, Logen, Utah), L-Glutamine (2 mM), MEM sodium pyruvate (1 mM), HEPES (N-[2-hydroxyethyl]piperazine-N′-[2-ethanesulfonic acid] 2 mM) all from Gibco BRL). After an overnight incubation, ishikawa cells are rinsed with Dulbecco's
Phosphate Buffered Saline (1×) (D-PBS) without Ca^+2 and Mg^+2 (Gibco BRL), and typsinized by a 3 minute incubation with 0.25% Trypsin/EDTA, phenol red-free (Gibco BRL). Cells are resuspended in assay medium and adjusted to 250,000 cells/ml. Approximately 25,000 cells in a 100 ul media are added to flat-bottom 96 wells microculture plates (Costar 3596) and incubated at 37° C. in a 5% CO2 humidified incubator for 24 hours. The next day, serial dilutions of compounds are prepared in assay medium (at 6 times the final concentration in the assay). The assay is run in dual mode, agonist and antagonist modes. For the agonist mode, plates receive 25 μl/well of assay medium followed by 25 μl/well of diluted compounds (at 6× the final concentrations). For the antagonist mode, plates receive 25 μl/well of 6 nM E2 (β-Estradiol, Sigma, St. Louis, Mo.) followed by 25 μl/well of diluted compounds (at 6× the final concentrations). After an additional 48-hour incubation at 37° C. in a 5% CO2 humidified incubator, media is aspirated from wells and 100 μl fresh assay medium is added to each microculture. Serial dilutions of compounds are prepared and added to the cells as described above. After an additional 72 hour incubation at 37° C. in a 5% CO2 humidified incubator, the assay is quenched by removing media and rinsing plates twice in Dulbecco's Phosphate Buffered Saline (1×) (D-PBS) (Gibco BRL). The plates are dried for 5 min and frozen at −70° C. for at least 1 hour. The plates are then removed from the freezer and allowed to thaw at room temperature. To each well, 100 μl of 1-Step™ PNPP (Pierce Chemical Company, Rockford, Ill.) is added. After a 20-minute incubation, plates are read on a spectophotometer at 405 nm. The data is fitted to a linear interpolation to derive EC50 (for agonist mode) or IC50 (for antagonist mode) values. For the agonist mode, a % efficacy for each compound is calculated versus the response to Tamoxifen. For the antagonist mode, a % efficacy for each compound is calculated versus E2 (1 nM) alone.

[2] = target: T1, ERbeta receptor (PanVera) (Homo sapiens, UniProt Q92731); test: ER competition binding assay (3H-Estradiol), ERbeta; conditions: IC50 converted to Ki by Cheng-Prusoff; 3H-Estradiol competition; A = class at 10 microMolar; read-out: Ki (ERβ)
T1 construct: purchased PanVera
T1 sequence (Q92731 whole entry): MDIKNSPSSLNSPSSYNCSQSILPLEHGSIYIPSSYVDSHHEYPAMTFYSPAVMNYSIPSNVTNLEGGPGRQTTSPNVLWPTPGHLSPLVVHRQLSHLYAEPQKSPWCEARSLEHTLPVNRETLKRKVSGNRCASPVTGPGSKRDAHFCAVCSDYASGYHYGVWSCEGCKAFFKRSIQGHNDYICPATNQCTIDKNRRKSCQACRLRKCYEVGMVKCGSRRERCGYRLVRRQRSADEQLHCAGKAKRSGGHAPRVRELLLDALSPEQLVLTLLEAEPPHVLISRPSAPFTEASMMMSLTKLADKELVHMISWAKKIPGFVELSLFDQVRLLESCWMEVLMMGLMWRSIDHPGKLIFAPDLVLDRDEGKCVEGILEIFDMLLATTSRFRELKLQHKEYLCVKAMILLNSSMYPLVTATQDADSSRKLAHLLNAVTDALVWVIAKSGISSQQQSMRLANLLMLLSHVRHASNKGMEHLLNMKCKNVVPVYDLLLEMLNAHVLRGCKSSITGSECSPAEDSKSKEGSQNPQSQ
Method: (§1) Competition binding assay is run in a buffer containing 50 mM Hepes, pH 7.5, 1.5 mM EDTA, 150 mM NaCl, 10% glycerol, 1 mg/ml ovalbumin and 5 mM DTT, using 0.025 μCi per well ^3H-Estradiol(NEN #NET517 at 118 Ci/mmol, 1 mCi/ml), 10 ng/well ERAlpha or ERbeta receptor (PanVera). Competing compounds are added at 10 different concentrations. Non-specific binding is determined in the presence of 1 μM of 17-B Estradiol. The binding reaction (140 μl) is incubated for 4 hours at room temperature, then 70 μl of cold DCC buffer is added to each reaction (DCC buffer contains per 50 ml of assay buffer, 0.75 g of charcoal (Sigma) and 0.25 g of dextran (Pharmacia)). Plates are mixed 8 minutes on an orbital shaker at 4° C. Plates are then centrifuged at 3,000 rpm at 4° C. for 10 minutes. An aliquot of 120 μl of the-mix is transferred to another 96-well, white flat bottom plate (Costar) and 175 μl of Wallac Optiphase “Hisafe 3” scintillation fluid is added to each well. Plates are sealed and shaken vigorously on an orbital shaker. After an incubation of 2.5 hrs, read plates in a Wallac Microbeta counter. […] The Kd for ^3H-Estradiol is determined by saturation binding to ER alpha and ER beta receptors. The IC50 values for compounds are converted to Ki using Cheng-Prusoff equation and the Kd determined by saturation binding assay.

[3] = test system: MCF-7 breast adenocarcinoma cells; test: MCF-7 Proliferation Assay; format: cell-based; conditions: antagonist mode, E2 10 pM, 14C-thymidine, B = class at 1 micromolar; for pIC50: Homo sapiens, MCF7
Method: MCF-7 Proliferation Assay
MCF-7 breast adenocarcinoma cells (ATCC HTB 22) are maintained in MEM (minimal essential medium, phenol red-free, Gibco BRL) supplemented with 10% fetal bovine serum (FBS) (VN), L-glutamine (2 mM), sodium pyruvate (1 mM), HEPES ((N-[2-hydroxyethyl]piperazine-N′-[2-ethanesulfonic acid]) 10 mM}, non-essential amino acids(0.1 mM)and Penicillin Streptomycin(1×). Seven days prior to assay, MCF-7 cells are switched to assay media which is the same as maintenance medium except supplemented with 10% dextran-coated charcoal-stripped fetal bovine serum (DCC-FBS) assay medium in place of 10% FBS. MCF-7 cells are removed from flasks using 10× Trypsin EDTA (phenol red free, Gibco BRL) and diluted to 1× in (Ca++/Mg++ free HBSS (phenol red-free). Cells are adjusted to 80,000 cells/ml in assay medium. Approximately 8,000 cells (100 μl) are added to each well in 96 well Cytostar T scintillation plates (Amersham) and incubated at 37° C. in a 5% CO2 humidified incubator for 24 hours to allow cell adherence and equilibration after transfer. Serial dilutions of drugs are prepared in assay medium at 4× the final desired concentration). A 50 μl aliquot of drug dilutions (at 4× the final assay concentration) is transferred to duplicate wells followed by 50 μl assay medium for the agonist mode or 50 μl of 40 pM of E2 for the antagonist mode to a final volume of 200 μl. For each of the agonist plates, a basal level (media) and a maximum stimulated level (with 1 μM E2) is determined. For each of the antagonist plates, a basal level (media) and a E2 (10 pM) alone control is determined. After an additional 48 hours at 37° C. in a 5% CO2 humidified incubator, 20 μl of assay medium containing 0.01 μCi of ^14C-thymidine (52 mCi/mmol, […], Amersham) is added to each well. The plates are incubated overnight in the same incubator and then counted on the Wallac Microbeta counter. […] For the agonist mode, an EC50 and percent of maximum E2 stimulation and concentration of maximum stimulation is calculated.

[4] = target: T2, ERAlpha receptor (PanVera) (Homo sapiens, UniProt P03372); test: ER competition binding assay (3H-Estradiol), ERalpha; conditions: IC50 converted to Ki by Cheng-Prusoff; 3H-Estradiol competition; A = class at 10 microMolar; read-out: Ki (ERα)
T2 construct: purchased PanVera
T2 sequence (P03372 1-595): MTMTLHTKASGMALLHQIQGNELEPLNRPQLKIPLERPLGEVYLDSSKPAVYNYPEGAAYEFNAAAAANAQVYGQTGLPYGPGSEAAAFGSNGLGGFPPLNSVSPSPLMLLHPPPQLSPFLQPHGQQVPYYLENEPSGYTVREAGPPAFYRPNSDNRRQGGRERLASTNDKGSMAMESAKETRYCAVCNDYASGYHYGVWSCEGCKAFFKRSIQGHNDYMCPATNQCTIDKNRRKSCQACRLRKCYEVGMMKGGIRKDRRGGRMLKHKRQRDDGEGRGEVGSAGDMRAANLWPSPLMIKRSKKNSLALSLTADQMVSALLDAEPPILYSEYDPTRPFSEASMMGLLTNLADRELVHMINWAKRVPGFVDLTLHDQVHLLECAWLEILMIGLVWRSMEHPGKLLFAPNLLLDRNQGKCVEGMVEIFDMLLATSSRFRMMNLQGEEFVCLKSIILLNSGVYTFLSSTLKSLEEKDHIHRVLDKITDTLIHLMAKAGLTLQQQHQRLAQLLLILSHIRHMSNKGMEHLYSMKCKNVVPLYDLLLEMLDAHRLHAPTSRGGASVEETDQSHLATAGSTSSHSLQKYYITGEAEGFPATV
Method: as §1

pEC50 [1] | pIC50 [1] | pKi [2] | pIC50 [3] | pKi [4] | Compound | Agonist % Eff [1] [%] | % Eff [1] [%] | IC50 (MCF7) [3]
6.85 | 6.05 | 8.23 | 6.41 | – | Oc1cccc(C2CCc3cc(O)ccc3N2Cc2ccc(OCCN3CCCCC3)cc2)c1 (stereo not drawn) [Example 12, 2-(3-Hydroxy-phenyl)-1-[4-(2-piperidin-1-yl-ethoxy)-benzyl]-1,2,3,4-tetrahydro-quinolin-6-ol] | 29 | 31 | –
7.64 | – | – | – | – | COc1ccc(C2CCc3cc(OC)ccc3N2C(=O)c2ccc(OCCN3CCCCC3)cc2)cc1 (stereo not drawn) [Example 1, [6-Methoxy-2-(4-methoxyphenyl)-3,4-dihydro-2H-quinolin-1-yl]-[4-4-(2-piperidin-1-yl-ethoxy)phenyl]methanone] | 18 | 18 | B^† (B means < 50% inhibition at 1 micromolar)
7.07 | 6.18 | – | – | 7.54 | O=C(c1ccc(OCCN2CCCCC2)cc1)N1c2ccc(O)cc2CCC1c1ccccc1 (stereo not drawn) [Example 4] | 44 | 47 | –
6.66 | – | – | 6.32 | 9.40 | Oc1ccc(C2CCc3cc(O)ccc3N2Cc2ccc(OCCN3CCCCC3)cc2)cc1 (stereo not drawn) [Example 7, 2-(4-Hydroxy-phenyl)-1-[4-(2-piperidin-1-yl-ethoxy)-benzyl)-1,2,3,4-tetrahydroquinolin-6-ol] | 28 | 17 | –
– | – | – | – | – | COc1ccc2c(c1)CCC(c1ccccc1)N2C(=O)c1ccc(OCCN2CCCCC2)cc1 (stereo not drawn) [Example 2] | −5 | 28 | B (B means < 50% inhibition at 1 micromolar)
7.55 | 6.15 | 8.39 | 6.27 | 8.89 | Oc1ccc2c(c1)CCC(c1ccccc1)N2Cc1ccc(OCCN2CCCCC2)cc1 (stereo not drawn) [Example 8, 2-Phenyl-1-[4-(2-piperidin-1-yl-ethoxy)-benzyl]-1,2,3,4-tetrahydroquinolin-6-ol] | 31 | 63 | –
6.62 | – | 5.94 | 6.00 | 7.06 | O=C(c1ccc(OCCN2CCCCC2)cc1)N1c2ccc(O)cc2CCC1c1ccc(O)cc1 (stereo not drawn) [Example 3] | 29 | 17 | –
